This passage reports GI50 and TGI results from PubChem BioAssay (NCI).

Molecules are shown by their SMILES. Where “and” joins values, the source holds several entries; their conditions need not be identical. Equal entries are not always repeated.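 1) Cells in 96-well plates. 2) Compound, 48 h, 5 concentrations. 3) Linear interpolation between surrounding doses. 4) Unreached endpoint = highest concentration. GI50 = concentration required for 50% inhibition of growth. TGI: total growth inhibition.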

Some test systems named below: XF 498 CNS; DMS 114 small cell lung; BT-549 breast; MDA-MB-231 breast; NCI/ADR-RES ovarian; MCF7 breast; MDA-N; T-47D breast; RXF-631 renal.
Holding throughout (test): DTP human tumour cell line panel, 48 h

A word on the GI50: it is the concentration giving 50% growth inhibition. For orientation: TGI means the concentration giving total growth inhibition. For `CC(=O)C1=C([O-])C(C)OC1=O.CC(=O)C1=C([O-])C(C)OC1=O.[NH-]C1CCCC[C@H]1[NH-].[Pt+4]` (stereo not given), in the test on XF 498 CNS, the GI50 was 66.9 µM and the TGI was over 100 µM.

On to `CN(C)c1ccc(N=Nc2c([O-])ccc3ccccc23)cc1.[C-]#[O+].[C-]#[O+].[Ir]`, for which the GI50 is 20.6 µM in the test with DMS 114 small cell lung; 19.6 µM in the test with BT-549 breast; 17 µM with XF 498 CNS; 18.8 µM in the test with MDA-MB-231 breast; 19.3 µM in the test with NCI/ADR-RES ovarian; 15.8 µM with MCF7 breast. For the same compound, the total growth inhibition concentration (TGI) in the test with DMS 114 small cell lung is 36 µM; in the test on BT-549 breast it was 56.7 µM; in the test on XF 498 CNS, 33.3 µM; with MDA-MB-231 breast, 36.2 µM; in the test on NCI/ADR-RES ovarian, 57.7 µM; in the test on MCF7 breast it was 31.8 µM.

For the compound `FC(F)(F)c1ccc2nc(Nc3ccc(Cl)c(Cl)c3)c(-c3ccccc3)nc2c1`, the TGI in the test with XF 498 CNS is over 100 µM.

For the compound `C=C(C)[C@@H]1CC[C@@]2(C)[C@H]1[C@H]1CCC3[C@@]4(C)CC[C@H](O)C(C)(C)[C@@H]4CC[C@@]3(C)[C@]1(C)C[C@@H]2O` (stereo not given in full), the TGI with BT-549 breast, in the test with MDA-N, in the test on T-47D breast, in the test on MDA-MB-231 breast, in the test with NCI/ADR-RES ovarian and with MCF7 breast was over 100 µM in each case.

Take `CCc1c2c(nc3cccc(N)c13)-c1cc3c(c(=O)n1C2)COC(=O)[C@]3(O)CC`: the GI50 in the test on BT-549 breast was 0.00656 µM; in the test on MDA-N it was 0.0915 µM and 0.704 µM; with MDA-MB-231 breast, 0.053 µM; in the test on NCI/ADR-RES ovarian, 0.0164 µM; in the test with MCF7 breast, under 0.001 µM. In addition, the TGI was 0.0218 µM with BT-549 breast; over 100 µM with MDA-N; over 100 µM in the test with T-47D breast; over 100 µM in the test on MDA-MB-231 breast; over 100 µM in the test with NCI/ADR-RES ovarian; 0.0101 µM in the test on MCF7 breast.

In the case of `C[C@H](CSC(=O)c1ccccc1)C(=O)N1c2ccccc2C[C@H]1C(=O)O`, the TGI in the test on BT-549 breast, with MDA-N, in the test on T-47D breast, in the test on MDA-MB-231 breast, in the test on NCI/ADR-RES ovarian and in the test with MCF7 breast was over 100 µM each time.

Regarding `O=[N+]([O-])c1nccn1CC1OC(n2ccnc2[N+](=O)[O-])C(O)C(O)C1O` (stereo not given), the TGI in the test with BT-549 breast, in the test with MDA-N, in the test with T-47D breast and with MCF7 breast was over 100 µM each time.

Turning to `COc1cc(Oc2c(O)c(C)c(OC)c(C(C)=O)c2O)c(C(C)=O)c(O)c1C`, the TGI in the test on DMS 114 small cell lung, in the test with XF 498 CNS and in the test with RXF-631 renal was over 100 µM throughout.

For the compound `O=C1c2ccccc2C(=O)C1C(c1ccc([N+](=O)[O-])cc1)C1C(=O)c2ccccc2C1=O`, the results for the TGI with XF 498 CNS and with RXF-631 renal were over 100 µM and 29.7 µM, respectively.

On to `CCO[C@@H]1C2C=CC(C2)[C@H]1[N+](=O)[O-]` (stereo not given in full), for which the TGI in the test with DMS 114 small cell lung and with XF 498 CNS was over 100 µM in each case.

With `CC[CH2][Pb]([CH2]CC)([CH2]CC)[NH]S(=O)(=O)c1ccc(C)cc1`, the GI50 in the test on BT-549 breast is 0.0209 µM; in the test with MDA-N, 0.0294 µM; in the test on MDA-MB-231 breast, 0.0661 µM; in the test with NCI/ADR-RES ovarian, 0.217 µM; in the test with MCF7 breast, 0.0651 µM. Further, the TGI came to 0.0499 µM in the test with BT-549 breast; 0.14 µM in the test on MDA-N; 0.27 µM in the test with MDA-MB-231 breast; 0.641 µM in the test on NCI/ADR-RES ovarian; 0.418 µM with MCF7 breast.

As to `C/C=C(/CCCCNCCCC)[Si](C)(C)C`, the total growth inhibition concentration (TGI) in the test on DMS 114 small cell lung worked out at 33.5 µM; in the test on XF 498 CNS, 23.7 µM; in the test with RXF-631 renal it was 31.3 µM.

With `O=C(Cc1ccccc1)N/N=C(\C1=Nc2ccc([N+](=O)[O-])cc2NC1O)C(O)c1ccc([N+](=O)[O-])cc1` (stereo not given), the TGI in the test with XF 498 CNS and in the test with RXF-631 renal was over 100 µM each time.

On to `COc1ccc2c(C(=O)O)cc3cc(OC)c(OC)cc3c2c1`, for which the TGI in the test on XF 498 CNS and in the test with RXF-631 renal was over 100 µM each time.

For `O=C1CC2C(=O)N(Cc3ccccc3)C1C(S(=O)(=O)c1ccccc1)C2S(=O)(=O)c1ccccc1` (stereo not given), the TGI with DMS 114 small cell lung is 2.72 µM; in the test with XF 498 CNS it was 3.53 µM; in the test with RXF-631 renal, 28.1 µM.

In the case of `CCOC(=O)N1C2C=C(C)C(C3C(C)C(=O)N31)N(C(=O)c1ccccc1)O2` (stereo not given), the TGI in the test on DMS 114 small cell lung, with XF 498 CNS and in the test on RXF-631 renal was over 100 µM in each case.

In the case of `COC(=O)[C@]1(C)CCC[C@@]2(C)C1CCC1=C[C@@]3(C(C)C)CC[C@]12OO3` (stereo not given in full), in the test on RXF-631 renal, the TGI was 63.8 µM.

Take `Clc1ccc(CN2COc3c(cc(Cl)c4cccnc34)C2)cc1`: the concentration for total growth inhibition (TGI) was 3.73 µM in the test on DMS 114 small cell lung, 7.24 µM with XF 498 CNS and 23.1 µM in the test on RXF-631 renal.

For `Cc1cccc(C)c1NC(=O)CCCC(=O)C1CCC/C1=N\NC(=O)C(=O)NN` (stereo not given), the TGI in the test on DMS 114 small cell lung, in the test with XF 498 CNS and in the test on RXF-631 renal was over 100 µM each time.

`CC1CC2(CC[C@@H]1O)OCCO2` (stereo not given in full): the TGI in the test on XF 498 CNS and with RXF-631 renal was over 100 µM throughout.

On to `Cc1c2ccncc2c(C)c2c1[nH]c1ccc(OC(C)(C)C)cc12`, for which the TGI in the test on DMS 114 small cell lung was 4.29 µM; in the test with XF 498 CNS it was 3.75 µM; in the test on RXF-631 renal it was 6.58 µM.

`C=CCc1ccc(O)c(-c2cc(C3Oc4c(-c5cc(CC=C)ccc5O)cc(O)cc4[C@@H]3CO)ccc2O)c1` (stereo not given in full) had a concentration for total growth inhibition (TGI) in the test on DMS 114 small cell lung of 28.1 µM. This counts as double-digit micromolar.

Turning to `CCC1CN2CCc3cc(OC)c(OC)cc3C2CC1CC1c2cc(OC)c(OC)cc2CCN1C(=O)CNC(=O)OC(C)(C)C` (stereo not given), the TGI is 20 µM in the test on DMS 114 small cell lung, 28.9 µM in the test on XF 498 CNS and over 100 µM in the test on RXF-631 renal.

Turning to `COC(=O)C(Cc1nc2ccc(Cl)cc2[nH]c1=O)C(=O)C(=O)Nc1ccccc1[N+](=O)[O-]` (stereo not given), the TGI with DMS 114 small cell lung, in the test on XF 498 CNS and in the test with RXF-631 renal was over 100 µM throughout.

For the compound `O=c1cccccc1NCCCCCCCCCNc1cccccc1=O`, the values for the TGI in the test with DMS 114 small cell lung and in the test on XF 498 CNS were 19.1 µM and 20 µM, respectively.

For the compound `COc1ccc(COCC(Cn2ccnc2)OCc2ccc(C(=O)O)cc2)cc1` (stereo not given), the TGI in the test on DMS 114 small cell lung, with XF 498 CNS and with RXF-631 renal was over 100 µM each time.

Turning to `CC(C)=CC(=O)CC(=O)C(=O)Nc1ccc(Cl)c(Cl)c1`, in the test with DMS 114 small cell lung, the total growth inhibition concentration (TGI) was over 100 µM.

`COc1ccc2cc3n(c2c1)CCc1cc(OC)c(OC)cc1-3`: the TGI with DMS 114 small cell lung, in the test on XF 498 CNS and in the test on RXF-631 renal was over 100 µM each time.
